Experimental data reported in paper PMC9230797, “Integration of a Physiologically Based Pharmacokinetic and Pharmacodynamic Model for Tegoprazan and Its Metabolite: Application for Predicting Food Effect and Intragastric pH Alterations” (Pharmaceutics, 2022).
Several values for one entry are separate records, joined by “and”; a condition that tells them apart may be missing. Identical values can stand only once. Like-named read-outs stand apart in the source and are kept apart here.

Experiments:
[1] = Physicochemical properties (solubility, pKa, LogP, BCS class); conditions: from high permeability and low solubility
[2] = PBPK model input parameters predicted in SimCYP or obtained by parameter estimation; conditions: human; initial model value; Vd of the clinical study applied; read-out: Vss
Source text: The tegoprazan and M1 PBPK models were developed using SimCYP® simulator, version 20 (Certara, Princeton, NJ, USA). Compound libraries were incorporated into an in vitro dataset, including the microsomal clearance of tegoprazan and M1. Observed PK parameters were obtained from the aforementioned clinical studies (Table 1 and Table 2).
The absorption of tegoprazan was applied to the advanced dissolution, absorption, and metabolism (ADAM) model, and the diffusion layer model (DLM) built into SimCYP® was applied to the considered formulation and pH-dependent solubility of tegoprazan. The permeability of tegoprazan was determined by a Caco-2 permeability assay and optimized by parameter estimation. Caco-2 permeability was optimized such that the predicted concentration–time profiles were fitted to clinical study data. The metabolite was generated by the metabolism of the parent drug; therefore, absorption was not considered.
The tissue distribution in the PBPK model was predicted by the distribution model (e.g., Rodger and Rowland method, Poulin and Theil method) and the tissue:plasma partition coefficient (Kp) scalar for specific organ or global values. Predicted systemic distribution was expressed as the volume of distribution in a steady state (Vss). […]

intragastric pH = test system: intragastric pH; design: method as in PMID 31437865; conditions: Observed (n = 6), cited from earlier work
[3] = Clinical PK of single and repeated oral doses of tegoprazan in healthy adult males (literature); format: in vivo, human; conditions: 100 mg once daily; from values of ref 15
CYP2C9 = biological target: T1, CYP2C9 (Homo sapiens, UniProt P11712); assay: Intrinsic clearance using recombinant CYPs: CYP2C9; format: in vitro ADME
T1 construct: purchased Corning Life Sciences (Woburn, MA, USA)
T1 sequence (P11712 whole entry): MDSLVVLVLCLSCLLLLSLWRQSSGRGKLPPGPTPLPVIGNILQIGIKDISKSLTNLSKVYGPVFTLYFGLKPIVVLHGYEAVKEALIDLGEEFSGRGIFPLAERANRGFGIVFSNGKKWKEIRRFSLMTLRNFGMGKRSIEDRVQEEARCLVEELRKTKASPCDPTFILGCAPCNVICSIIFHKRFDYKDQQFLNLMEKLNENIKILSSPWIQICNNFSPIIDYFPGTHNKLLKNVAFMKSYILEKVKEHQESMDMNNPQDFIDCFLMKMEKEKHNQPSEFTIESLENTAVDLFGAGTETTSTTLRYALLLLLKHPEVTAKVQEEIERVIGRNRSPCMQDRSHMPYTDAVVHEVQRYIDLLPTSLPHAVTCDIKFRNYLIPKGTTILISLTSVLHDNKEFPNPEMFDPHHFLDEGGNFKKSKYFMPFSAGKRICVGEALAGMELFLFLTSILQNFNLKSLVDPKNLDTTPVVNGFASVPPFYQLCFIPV
Protocol: The elimination profiles of tegoprazan and M1 were assessed using rCYPs. All the assay procedures were performed according to the manufacturer’s instructions. Master mix (1.399 mL), containing the NADPH-generating system, 3.3 mM of glucose 6-phosphate, PBS buffer, deionized water, and each rCYP (25 pmol/μL of CYP2C8, 2C19, and 2E1 and 50 pmol/μL of CYP3A4, 2C9, and 2D6), was added to a microtube and pre-incubated at 37 °C for 5 min. Next, 1 μM tegoprazan and M1 were added and incubated at 37 °C for 0, 5, 10, 20, 30, 45, and 60 min. A total of 100 μL of the sample, incubated for predefined duration, was transferred to a fresh e-tube. Next, 200 μL of acetonitrile containing tegoprazan-d6 (0.5 μM) was added, vortexed for 5 min, and centrifuged at 16,200× g and 4 °C for 10 min. The concentrations of the remaining tegoprazan and M1 were determined by LC–MS/MS. All experiments were performed in duplicate. CLint,rCYP levels were assessed using the results of the disappearance test. […] The CLint resulting from rCYPs was calculated using Equation (3):(3) CLint,rCYP(μL/min/pmol CYP)=0.693/t1/2×1400/concentration of CYP
Caco-2 and rCYP samples were quantified using LC-MS/MS (UPLC® I-class coupled with TQ-MS (Waters, Milford, MA, USA). The mobile phase comprised (a) 0.1% formic acid and (b) acetonitrile containing 0.1% formic acid. Gradient elution at a flow rate of 0.3 mL/min was applied. Tegoprazan, M1, and the internal standard (tegoprazan-d6) were optimized in electrospray ionization positive mode. Acetonitrile with 0.1 μM of tegoprazan-d6 was added to the collected Caco-2 or rCYP samples. Then, processed samples were centrifuged at 13,000× g for 20 min. After centrifugation, 100 μL of supernatant was transferred to an LC-MS vial and analyzed using LC-MS/MS. […] The stability of tegoprazan was evaluated, and it satisfied the acceptance criteria (coefficient of variances was within 15%) under variable conditions including reinjection, processed sample stability (PSS), and short-term stability for the stock and sample.

recombinant CYP2C8 = biological target: T2, recombinant CYP2C8 (Homo sapiens, UniProt P10632); assay: Intrinsic clearance using recombinant CYPs: CYP2C8; format: in vitro ADME; conditions: 1 μM
T2 construct: purchased Corning Life Sciences (Woburn, MA, USA)
T2 sequence (P10632 1-490): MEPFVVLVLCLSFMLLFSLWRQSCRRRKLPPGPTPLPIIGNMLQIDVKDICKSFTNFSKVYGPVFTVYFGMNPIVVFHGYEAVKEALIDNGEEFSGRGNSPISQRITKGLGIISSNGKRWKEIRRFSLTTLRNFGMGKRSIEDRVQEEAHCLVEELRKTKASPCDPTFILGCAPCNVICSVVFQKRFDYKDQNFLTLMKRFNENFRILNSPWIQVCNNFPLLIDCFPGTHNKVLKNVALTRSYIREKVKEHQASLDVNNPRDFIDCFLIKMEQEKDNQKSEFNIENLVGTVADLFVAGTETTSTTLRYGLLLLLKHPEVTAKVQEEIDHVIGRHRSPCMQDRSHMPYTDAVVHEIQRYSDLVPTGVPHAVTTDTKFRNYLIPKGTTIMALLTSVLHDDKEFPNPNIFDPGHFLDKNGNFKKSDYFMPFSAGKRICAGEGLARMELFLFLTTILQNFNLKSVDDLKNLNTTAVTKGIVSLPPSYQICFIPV
Protocol: The elimination profiles of tegoprazan and M1 were assessed using rCYPs. All the assay procedures were performed according to the manufacturer’s instructions. Master mix (1.399 mL), containing the NADPH-generating system, 3.3 mM of glucose 6-phosphate, PBS buffer, deionized water, and each rCYP (25 pmol/μL of CYP2C8, 2C19, and 2E1 and 50 pmol/μL of CYP3A4, 2C9, and 2D6), was added to a microtube and pre-incubated at 37 °C for 5 min. Next, 1 μM tegoprazan and M1 were added and incubated at 37 °C for 0, 5, 10, 20, 30, 45, and 60 min. A total of 100 μL of the sample, incubated for predefined duration, was transferred to a fresh e-tube. Next, 200 μL of acetonitrile containing tegoprazan-d6 (0.5 μM) was added, vortexed for 5 min, and centrifuged at 16,200× g and 4 °C for 10 min. The concentrations of the remaining tegoprazan and M1 were determined by LC–MS/MS. All experiments were performed in duplicate. CLint,rCYP levels were assessed using the results of the disappearance test. The terminal slope of the linear regression was used to determine the CLint for tegoprazan. The CLint resulting from rCYPs was calculated using Equation (3):(3) CLint,rCYP(μL/min/pmol CYP)=0.693/t1/2×1400/concentration of CYP […]

## Cc1nc2cc(C(=O)N(C)C)cc(O[C@H]3CCOc4cc(F)cc(F)c43)c2[nH]1 [tegoprazan]
[1]
  biopharmaceutics classification system (BCS) class: class II
[2]
  Vd: 1.55 L/kg
Intragastric pH; 50 mg Single
  pH ≥ 4 over 24 h: 48.9%
Intragastric pH; 100 mg q.d. for 7 Days, Day 1
  pH ≥ 4 over 24 h: 62.3%
Intragastric pH; 100 mg q.d. for 7 Days, Day 7
  pH ≥ 4 over 24 h: 70.4%
[3]
  decrease of observed Cmax at Day 7 compared with Day 1: approximately 40.2%
CYP2C9; 1 μM, experimental data
  CLint, CYP2C9: 0.14 µL/min/pmol and 0.140 µL/min/pmol
CYP2C9; human, recombinant CYP2C9, rCYP2C9
  half-life at 1 μM: 2.27 h
CYP2C9; rCYP2C9, 1 μM
  Slope (disappearance): -0.005
Recombinant CYP2C8; experimental data
  CLint, CYP2C8: 0.06 µL/min/pmol and 0.060 µL/min/pmol
Recombinant CYP2C8; rCYP2C8
  Slope (disappearance): 0.002
